Assay results published in patent US11214586B2, “Rhodamine triplet state complex and preparation and photodynamic therapy (PDT) study thereof” (SOUTHERN UNIVERSITY OF SCIENCE AND TECHNOLOGY, priority 2018, dated 2022).
Where two headings read alike, the source gives them in different places.

Key:
[1] = Octanol-water partition coefficient
From the text: (§3) Octanol-water partition coefficients (log Po/w)^[27] of bpy-Rho and M-Rho have been measured in order to study their lipophilic/hydrophilic characters. The higher is the log Po/w value associated with the dye, the higher is its lipophilic character.

[2] = Singlet oxygen quantum yield; assay type: physicochemical; details: for ΦΔ (singlet oxygen quantum yield): relative to rose bengal (ΦΔ = 0.76)
From the text: (§1) The long-lived triplet excited state of rhodamine is anticipated to interact with molecular oxygen (^3O2) to form singlet oxygen (^1O2), which is useful for PDT applications. The ability of M-Rho to produce ^1O2 has been evaluated spectroscopically by the observation of ^1O2 emission at about 1270 nm (inset of FIG. 2b). Remarkable ^1O2 emission is observed in Ir-Rho, Re-Rho and Pt-Rho but not for Rh-Rho and bpy-Rho. By monitoring the diminution of the characteristic absorption of the ^1O2 scavenger 1,3-diphenylisobenzofuran (DPBF) at 410 nm, ^1O2 generation is also confirmed and the corresponding quantum yields (ϕΔ) for the complexes are determined (Table 1). […] The rate and quantum yield of ^1O2 generation are found to vary with different metal systems.
Singlet oxygen quantum yield was determined by comparing the ^1O2 emission intensity of Rose Bengal and M-Rho.

[3] = Nanosecond transient absorption difference spectroscopy; assay type: physicochemical; details: for TT (triplet-state lifetimes): measured by transient absorption in CH3CN
From the text: Nanosecond transient absorption (TA) difference spectroscopy was employed to investigate the triplet excited states of M-Rho (FIG. 2c and FIGS. 16-19). Upon pulsed laser excitation at 355 nm, an intense bleaching signal at 575 nm with lifetime in microsecond range is observed, which is ascribed to the depletion of ground state rhodamine absorption. Such a long-lived excited state should be localized on the rhodamine unit, and is assigned as the ^3IL excited state of rhodamine in M-Rho. The absorption signal at 610-800 nm is due to the rhodamine ^3IL excited state absorption. In contrast, no signal from this triplet excited state is detected in bpy-Rho because of the lack of efficient ISC. On the other hand, only the transient absorption signals originating from the corresponding ^3MLCT excited states are observed in the rhodamine-free analogues (FIGS. 20-21).
(§2) The UV-vis absorption spectra were taken on Cary 60 UV-vis spectrophotometer. Steady-state emission spectra at room temperature were recorded on an Edinburgh Instruments FLS980 fluorescence spectrometer. Quartz cuvettes (path length=1 cm) were used in all spectrophotometric and fluorometric measurements. NMR spectra were recorded on a Bruker AVANCE 400 (^1H NMR for 400 MHz and ^13C NMR for 100 MHz) Fourier transform NMR spectrometer with chemical shifts reported relative to tetramethylsilane, (CH3)4Si. High-resolution MS spectra were performed on an Orbitrap Fusion Tribrid mass spectrometer. Elemental analyses of the newly synthesized complexes were preformed on a Elementar Vario EL Cube elemental analyzer at Sun Yat-sen University. The nanosecond time-resolved transient-difference absorption spectra were detected by using Edinburgh LP920 instruments (Edinburgh Instruments, U.K.). All solutions for transient absorption studies were degassed on a high-vacuum line in a two-compartment cell consisting of a 10-ml Pyrex bulb and a 1-cm or 4-mm path length quartz cuvette and sealed from the atmosphere by a Bibby Rotaflo HP6 Teflon stopper. The solutions were rigorously degassed with at least four successive freeze-pump-thaw cycles. Emission lifetime measurements were performed using a conventional laser system. The excitation source used was a 355-nm output (third harmonic) of a Spectra-Physics Quanta-Ray Q-switched GCR-150-10 pulsed Nd-YAG laser. Luminescence decay signals were detected by a Hamamatsu R928 PMT and recorded on a Tektronix Model TDS-620A (500 MHz, 2 GS/s) digital oscilloscope and analyzed using a program for exponential fits. Absolute quantum yields were measured by HAMAMATSU-C11347.

[4] = UV/Vis absorption spectra; assay type: physicochemical; details: for λabs: absorption maximum, in CH3CN; for ε × 10^4: molar extinction coefficient at the absorption maxima, values × 10^4
Experimental: as §2

[5] = Steady-state emission spectra and absolute luminescence quantum yield; assay type: physicochemical; details: for λem: Conc. = 1.0 × 10^−6M in MeOH; for Φlum: absolute luminescence quantum yield measured by HAMAMATSU-C11347
Experimental: as §2

[6] = Singlet oxygen emission at about 1270 nm; assay type: physicochemical; details: in CH3CN
Experimental: Singlet oxygen emission was detected by using FLS-980 spectrofluorometer. All of the compounds were dissolved in CH3CN. The absorbance at 532 nm was adjusted to be around 1.7 for all the compounds. Upon measurements, an 850 nm long-pass filter was inserted in between the sample and the detector to avoid many high-order diffraction from the visible emission.

MCF-7 cells [7] = assay: Mitochondrial membrane potential, flow-cytometry-based JC-1 assay; assay type: cell-based, human; details: 5 uM, 11 W lamp 30 min
Experimental: Mitochondrial depolarization was assessed by flow cytometry after incubation with JC-1 Molecular Probes (Thermo Fisher Scientific, USA). Briefly, The MCF-7 cells were seeded in six-well plate, incubated for 24 h in 5% CO2 at 37° C. Next, added to compounds (bpy-Rho and M-Rho) in medium make the final concentrations of 5 uM compounds. After irradiation treatment (11 W lamp 30 min). The cells were resuspended in warm PBS, and incubated with JC-1 (4 μg/ml) for 30 min at 37° C. and 5% CO2. Thereafter the cells were centrifuged, resuspended in 600 μL of PBS, and analyzed immediately on a flow cytometer (Becton Dickinson, San Jose, Calif., USA). Untreated cells were used as negative controls.

MCF-7 cells [8] = assay: Mitochondria-localized ROS, MitoSOX Red; assay type: cell-based, human; details: 10 μM, 11 W lamp irradiation for 10 min
Experimental: (a) Confocal fluorescence microscopic images of MCF-7 cells treated with MitoSOX (1.0 μM) according to the treatment variables, including with coincubation with bpy-Rho and M-Rho (10 μM), 11 W lamp irradiation for 10 min. (b) Flow cytometry analysis of MCF-7 cells (n=10000 cells) after treatment with MitoSox and different Rhodamine-metal Complexes mean fluorescence intensity per cell.
On the basis of the results of intracellular ROS production and colocalization study, it is reasonable to anticipate that the ROS is essentially generated within the mitochondria. MitoSOX Red reagent, a mitochondrial ROS indicator, is also used to probe specifically the generation of mitochondria-localized ROS. Intense red fluorescence from the oxidation of MitoSOX is observed in both confocal fluorescence microscopy images (FIG. 26a) and flow cytometry analysis (FIG. 26b) of MCG-7 cells incubated with MitoSOX and M-Rho.

[9] = DPBF 1O2 scavenger absorbance under 11-W lamp irradiation; assay type: physicochemical; details: irradiation with a 11-W lamp; 50 μM DPBF, 5 μM compound
Experimental: Rose Bengal was measured in MeOH.
as §1

MCF-7 cells [10] = assay: Intracellular ROS, DCFH-DA assay; assay type: cell-based, human; details: 5 μM, 11-W lamp for 30 min
Experimental: The MCF-7 cells were seeded in eight-well chambered coverglasses (lab-Tek, Nunc, USA) and six-well plate, incubated for 24 h in 5% CO2 at 37° C. Next, added to compounds (bpy-Rho and M-Rho) in medium make the final concentrations of 5 μM compounds. After irradiation treatment (11 W lamp 30 min), cells were promptly washed with PBS and incubated with 4 μg/ml 2′7′-dichloro-fluoreseindiacetate (DCFH-DA) for 30 min, and intracellular ROS generation was evaluated by flow cytometry and confocal microscopy.

MCF-7 cells [11] = assay: Subcellular localization with MitoTracker Green; assay type: cell-based, human; details: 5 μM, co-stained with MitoTracker Green
Experimental: MCF-7 cells (5000 cells) were cultured in eight-well chambered coverglasses (lab-Tek, Nunc, USA) for 24 h. Later, added to the cells to give final complexes concentrations (5 μM). After incubation for 30 min, The cells were treated with Mito-Tracker for 10 min to stain specifically the mitochondria (1:5000 dilution in PBS). After washing three times with PBS, followed by confocal microscopy imaging.

[12] = octanol-water, literature value; cited from earlier work

From the text for physchem: as §3

CCN(CC)c1ccc2c(-c3ccnc(-c4cc(C)ccn4)c3)c3ccc(=[N+](CC)CC)cc-3oc2c1.F[P-](F)(F)(F)(F)F.[C](#Cc1ccccc1)[Pt][C]#Cc1ccccc1 [Pt-Rho]
log Po/w [1]: 1.26
ΦΔ (singlet oxygen quantum yield) [2]: 0.57
TT (triplet-state lifetimes) [3]: 8.49 μs
λabs [4]: 574 nm
ε × 10^4 [4]: 7.96 M^−1 cm^−1
λem [5]: 631 nm
Φlum [5]: 0.062
1O2 emission at about 1270 nm [6]: Remarkable
ratio of JC-1 aggregates/JC-1 monomers (MCF-7 cells [7]): 8.16

CCN(CC)c1ccc2c(-c3ccnc(-c4cc(C)ccn4)c3)c3ccc(=[N+](CC)CC)cc-3oc2c1.F[P-](F)(F)(F)(F)F.F[P-](F)(F)(F)(F)F.c1ccc(-c2cccc[c]2[Rh+][c]2ccccc2-c2ccccn2)nc1 [Rh-Rho]
log Po/w [1]: −1.05
rate and quantum yield of 1O2 generation, ranking ([2]; among M-Rho): worst photosensitizer
ΦΔ (singlet oxygen quantum yield) [2]: 0.37
TT (triplet-state lifetimes) [3]: 14.1 μs
λabs [4]: 574 nm
ε × 10^4 [4]: 8.24 M^−1 cm^−1
λem [5]: 629 nm
Φlum [5]: 0.23
1O2 emission at about 1270 nm [6]: not
ratio of JC-1 aggregates/JC-1 monomers (MCF-7 cells [7]): 11.28

CCN(CC)c1ccc2c(-c3ccnc(-c4cc(C)ccn4)c3)c3ccc(=[N+](CC)CC)cc-3oc2c1 [bpy-Rho, N-(6-(diethylamino)-9-(4′-methyl-[2,2′-bipyridin]-4-yl)-3H-xanthen-3-ylidene)-N-ethylethanaminium]
MitoSOX red fluorescence (mitochondria-localized ROS) (MCF-7 cells [8]): very weak red fluorescence
ΦΔ (singlet oxygen quantum yield) [2]: 0.08
signal from rhodamine triplet excited state ([3]; excitation at 355 nm): no signal
logP (physchem): 0.49
DPBF absorption at 410 nm [9]: negligible decrease
intracellular ROS generation (MCF-7 cells [10]): negligible or a little amount of ROS
λabs [4]: 564 nm
ε × 10^4 [4]: 9.86 M^−1 cm^−1
λem [5]: 598 nm
Φlum [5]: 0.29
emission ([5]; in MeCN): 598 nm
mitochondrial localization (MCF-7 cells [11]): relatively less mitochondria-localized
1O2 emission at about 1270 nm [6]: not
ratio of JC-1 aggregates/JC-1 monomers (MCF-7 cells [7]): 14.23

COC(=O)c1ccccc1-c1c2ccc(=N)cc-2oc2cc(N)ccc12.Cl [rhodamine 123]
log Po/w [12]: −0.62
